Data taken from US7317038B2, “Nerve regeneration promoters containing semaphorin inhibitor as the active ingredient” (Dainippon Sumitomo Pharma Co., Ltd., priority 2000, dated 2008).
Entries after “also recorded” stand apart in the source; their conditions may differ.

Target: T1, Sema3A (Mus musculus, UniProt O08665)
T1 construct: expressed in transfected cells; host or cells: COS7
T1 sequence (O08665 21-772): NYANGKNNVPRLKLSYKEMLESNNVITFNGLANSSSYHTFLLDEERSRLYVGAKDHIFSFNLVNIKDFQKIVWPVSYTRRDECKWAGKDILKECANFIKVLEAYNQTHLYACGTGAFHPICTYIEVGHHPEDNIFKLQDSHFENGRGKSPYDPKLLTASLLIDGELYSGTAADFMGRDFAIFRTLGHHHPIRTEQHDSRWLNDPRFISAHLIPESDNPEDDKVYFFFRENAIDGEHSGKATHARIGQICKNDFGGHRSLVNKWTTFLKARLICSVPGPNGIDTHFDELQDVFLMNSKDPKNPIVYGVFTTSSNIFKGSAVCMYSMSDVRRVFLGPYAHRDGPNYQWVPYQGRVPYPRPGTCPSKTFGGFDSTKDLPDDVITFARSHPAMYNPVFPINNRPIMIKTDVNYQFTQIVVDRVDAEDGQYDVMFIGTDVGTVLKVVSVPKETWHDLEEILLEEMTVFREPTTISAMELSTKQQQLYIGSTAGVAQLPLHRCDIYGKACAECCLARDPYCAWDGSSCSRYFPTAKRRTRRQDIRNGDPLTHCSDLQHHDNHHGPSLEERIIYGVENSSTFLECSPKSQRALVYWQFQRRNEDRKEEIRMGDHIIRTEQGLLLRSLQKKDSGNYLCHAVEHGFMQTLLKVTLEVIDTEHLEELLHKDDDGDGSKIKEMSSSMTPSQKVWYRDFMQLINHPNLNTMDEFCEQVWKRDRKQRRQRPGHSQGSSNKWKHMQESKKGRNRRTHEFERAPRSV
Assay: Collagen gel co-culture: suppression of neurite outgrowth inhibitory action of Sema3A
Type: cell-based
Parameters: key to suppression of neurite outgrowth inhibitory activity of Sema3A, score / inhibition of neurite outgrowth-inhibitory action of Sema3A, score: neurites outgrew in a complete concentric circular shape just like for the control groups where Sema3A-non-expressing COS7 cells were used, it was scored +++ (a strong inhibitory effect for Sema3A); outgrowth was found almost in a concentric circular shape accompanied with a little suppression of the outgrowth toward the direction of Sema3A-expressing COS cells, it was scored ++; outgrowth toward the direction of Sema3A-expressing COS cells is fairly suppressed to present a crescent shape, it was scored +; outgrowth toward the direction of Sema3A-expressing COS cells was not found at all (no inhibitory effect for Sema3A), it was scored −
Conditions: for suppression of neurite outgrowth inhibitory activity of Sema3A, score: Example 5
Experimental: Whether the object compounds (SPF-3059-1, M162, A721) have persistent inhibitory action to Sema3A was analyzed by the collagen gel co-culture method (Neuroprotocols 4, 116, 1994) using Sema3A-expressing COS7 cell clumps and 7- or 8-day-old chick embryo dorsal root ganglions. The Sema3A-expressing COS7 cell clumps were generated as follows. 1 μg of Sema3A-expression plasmid was introduced into COS7 cells (100000 cells/35 mm culture plate), which were cultured overnight, with the FuGENE6 transfection reagent (Roche). 2.5 hours after the starting of the transfection, the COS7 cells were collected by trypsinization and centrifugation, and re-suspended in a medium of 200 μl. 20 μl of the cell suspension was placed on the lid of the culture plate (inside) and the lid was turned over, and then the suspension was cultivated for 20 hours (hanging drop culture) (Cell 78, 425, 1994). When the culture was over, aggregated COS7 cells (clump) were collected and trimmed to a diameter of 0.5 mm. The Sema3A-expressing COS7 cell clump and the above-mentioned dorsal root ganglions were placed in parallel at a distance of 0.5 to 1 mm in a 0.2% collagen gel which was then cultivated in a medium containing the aforementioned compounds at various concentrations for 2 days at 37° C. under 5% CO2. Glutaraldehyde was quickly added therein to make the final concentration 1%. The cultures were then left for 1 hour at room temperature so that the tissues were fixed, and the neurite outgrowth was microscopically observed. The results are found in FIG. 4.
When a medium not containing a subject compound was used, neurites were unable to grow towards the COS7 cell clump with the high concentration of Sema3A and grew only to the opposite direction.
In a similar way as in Example 4, suppression of the neurite outgrowth inhibitory activity was analyzed for the compounds, SPF-3059-1, SPF-3059-2 and SPF-3059-5. When the neurites outgrew in a complete concentric circular shape just like for the control groups where Sema3A-non-expressing COS7 cells were used, it was scored +++ (a strong inhibitory effect for Sema3A). When the outgrowth was found almost in a concentric circular shape accompanied with a little suppression of the outgrowth toward the direction of Sema3A-expressing COS cells, it was scored ++. […] When the outgrowth toward the direction of Sema3A-expressing COS cells was not found at all (no inhibitory effect for Sema3A), it was scored −.

suppression of neurite outgrowth inhibitory activity of Sema3A, score (0.5 μg/ml compound): + | suppression of neurite outgrowth inhibitory activity of Sema3A, score (1.0 μg/ml compound): ++ | suppression of neurite outgrowth inhibitory activity of Sema3A, score (2.0 μg/ml compound): +++
SMILES: CC(=O)c1c(C)c(C(=O)C2COc3cc(O)c(O)c(C(=O)O)c3C2=O)cc2c(=O)c3c(C(=O)O)c(O)c(O)cc3oc12 (stereo not shown) [SPF-3059-1]
persistent inhibitory action to Sema3A (neurite outgrowth toward Sema3A-expressing COS7 cell clump) (collagen gel co-culture, 2 days): persistently inhibit Sema3A activities; also recorded: persistently inhibited the action of Sema3A
